ChEMBL document CHEMBL2040800 (J Med Chem, 2012)
Values after ≈ are worked out from the molar mass of the structure shown. Active and inactive are the calls of the source. No cut-off for these calls is given here.

Assays:
[1] = Kinetic solubility of the compound in phosphate buffer after 30 mins by nephelometry at pH 6.5; format: physicochemical; conditions: read-out: Kinetic_solubility
[2] = Volume of distribution at steady state in Sprague-Dawley rat at 3.2 mg/kg, iv; format: ADME, organism-based; design: dose 3.2 mg/kg, route intravenous; conditions: plasma, read-out: Vdss
[3] = Intrinsic clearance in human liver microsomes at 1 uM up to 60 mins; format: ADME, Microsome; conditions: read-out: CLH
Plasmodium berghei [4] = assay: Antimalarial activity against Plasmodium berghei ANKA expressing GFP infected in po dosed Sprague-Dawley rat assessed as reduction in parasitemia administered as single dose measured on day 3 post-infection by flow cytometry; format: functional; conditions: 72 h
Plasmodium berghei [5] = assay: Antimalarial activity against Plasmodium berghei ANKA expressing GFP infected in Sprague-Dawley rat assessed as reduction in parasitemia at 10 mg/kg, po administered as single dose measured on day 3 post-infection by flow cytometry; format: functional; design: scale not given: the % may be the effect or the level left
Cytochrome P450 1A2 = biological target: T1, Cytochrome P450 1A2 (Homo sapiens, UniProt P05177); assay: Inhibition of CYP1A2-mediated phenacetin O-deethylation in human liver microsomes; format: ADME, Microsome
T1 sequence (P05177 whole entry): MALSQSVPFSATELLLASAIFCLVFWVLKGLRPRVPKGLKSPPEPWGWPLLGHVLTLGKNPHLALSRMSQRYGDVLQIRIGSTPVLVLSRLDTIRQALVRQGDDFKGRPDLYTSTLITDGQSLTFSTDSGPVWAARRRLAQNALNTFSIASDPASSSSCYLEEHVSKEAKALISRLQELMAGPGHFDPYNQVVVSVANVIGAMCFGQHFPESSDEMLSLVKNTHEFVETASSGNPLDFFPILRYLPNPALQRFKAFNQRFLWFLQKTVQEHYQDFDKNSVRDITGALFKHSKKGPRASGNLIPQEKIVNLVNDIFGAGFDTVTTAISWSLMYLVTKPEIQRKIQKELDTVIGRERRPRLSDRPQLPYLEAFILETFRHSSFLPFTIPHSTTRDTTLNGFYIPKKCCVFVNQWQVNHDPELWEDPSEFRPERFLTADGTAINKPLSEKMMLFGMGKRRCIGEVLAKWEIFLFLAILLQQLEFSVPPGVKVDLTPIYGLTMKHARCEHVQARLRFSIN

Plasmodium berghei [6] = assay: Antimalarial activity against Plasmodium berghei ANKA expressing GFP infected in Sprague-Dawley rat assessed as mean survival days of host at 10 mg/kg, po administered as single dose; format: functional
[7] = Toxicity in rabbit ventricular wedge assessed as change in TP-e at 2 uM; format: tissue-based, Oryctolagus cuniculus, Cardiac ventricle
[8] = Tmax in Sprague-Dawley rat at 20.2 mg/kg, po; format: ADME, organism-based; design: dose 20.2 mg/kg, route oral; conditions: in vivo
Plasmodium berghei [9] = assay: Antimalarial activity against Plasmodium berghei ANKA expressing GFP infected in Sprague-Dawley rat assessed as mean survival days of host at 50 mg/kg, po administered as 4 doses; format: functional
[10] = Cmax in Sprague-Dawley rat at 20.2 mg/kg, po; format: ADME, organism-based; design: dose 20.2 mg/kg, route oral; conditions: in vivo
[11] = Toxicity in rabbit ventricular wedge assessed as change in […] at 2 uM; format: tissue-based, Oryctolagus cuniculus, Cardiac ventricle
Plasmodium berghei [12] = assay: Antimalarial activity against Plasmodium berghei ANKA expressing GFP infected in Sprague-Dawley rat assessed as mean survival days of host at 100 mg/kg, po administered as single dose; format: functional
Plasmodium berghei [13] = assay: Antimalarial activity against Plasmodium berghei ANKA expressing GFP infected in Sprague-Dawley rat assessed as total cure from parasite at 100 mg/kg, po administered as single dose measured on day 30 post-infection by flow cytometry; format: functional, organism-based; design: dose 100 mg/kg
Salmonella typhimurium = assay: Genotoxicity in Salmonella typhimurium by Ames test; format: toxicity, organism-based; conditions: salmonella enterica subsp. enterica serovar typhimurium
[14] = Apparent terminal half life in Sprague-Dawley rat at 20.2 mg/kg, po; format: ADME, organism-based; design: dose 20.2 mg/kg, route oral; conditions: in vivo, read-out: betat1/2(app) (converted)
[15] = Half life in human liver microsomes at 1 uM; format: ADME, Microsome
[16] = Total plasma clearance in Sprague-Dawley rat at 3.2 mg/kg, iv; format: ADME, organism-based; design: dose 3.2 mg/kg, route intravenous
[17] = Partition coefficient, log D of the compound at pH 7.4 by phase gradient HPLC analysis; format: physicochemical; conditions: octanol/water
[18] = Apparent terminal half life in Sprague-Dawley rat at 3.2 mg/kg, iv; format: ADME, organism-based; design: dose 3.2 mg/kg, route intravenous; conditions: in vivo, read-out: betat1/2(app) (converted)
[19] = Toxicity in rabbit ventricular wedge assessed as change in QT at 2 uM; format: tissue-based, Oryctolagus cuniculus, Cardiac ventricle
Plasmodium berghei [20] = assay: Antimalarial activity against Plasmodium berghei ANKA expressing GFP infected in Sprague-Dawley rat assessed as reduction in parasitemia at 50 mg/kg, po administered as 4 doses measured on day 4 post-infection by flow cytometry; format: functional; design: scale not given: the % may be the effect or the level left
Cytochrome P450 2C9 = Cytochrome P450 2C9 (Homo sapiens, UniProt P11712); assay: Inhibition of CYP2C9-mediated tolbutamide methylhydroxylation in human liver microsomes; format: ADME, Microsome
Cytochrome P450 2C9, sequence (P11712 whole entry): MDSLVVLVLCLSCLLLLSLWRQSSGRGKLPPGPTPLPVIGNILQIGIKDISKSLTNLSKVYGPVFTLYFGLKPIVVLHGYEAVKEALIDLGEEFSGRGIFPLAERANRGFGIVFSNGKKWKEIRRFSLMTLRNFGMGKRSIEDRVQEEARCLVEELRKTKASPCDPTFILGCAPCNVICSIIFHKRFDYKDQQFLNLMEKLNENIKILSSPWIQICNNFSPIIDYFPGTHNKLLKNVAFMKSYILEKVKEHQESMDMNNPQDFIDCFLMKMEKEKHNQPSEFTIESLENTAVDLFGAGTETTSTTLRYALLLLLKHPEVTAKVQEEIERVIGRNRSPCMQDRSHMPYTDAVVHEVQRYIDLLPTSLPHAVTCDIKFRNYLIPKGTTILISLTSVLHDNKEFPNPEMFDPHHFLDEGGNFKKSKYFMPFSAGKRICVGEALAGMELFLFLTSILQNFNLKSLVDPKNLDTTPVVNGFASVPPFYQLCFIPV

L6 = assay: Cytotoxicity against rat L6 cells after 72 hrs by alamar blue assay; format: cell-based; conditions: l6, 72 h
Plasmodium berghei [21] = assay: Antimalarial activity against Plasmodium berghei ANKA expressing GFP infected in Sprague-Dawley rat assessed as total cure from parasite at 50 mg/kg, po administered as 4 doses measured on day 30 post-infection by flow cytometry; format: functional, organism-based; design: dose 50 mg/kg
Cytochrome P450 2C19 = Cytochrome P450 2C19 (Homo sapiens, UniProt P33261); assay: Inhibition of CYP2C19-mediated (S)-mephenytoin 4'-hydroxylation in human liver microsomes; format: ADME, Microsome
Cytochrome P450 2C19, sequence (P33261 whole entry): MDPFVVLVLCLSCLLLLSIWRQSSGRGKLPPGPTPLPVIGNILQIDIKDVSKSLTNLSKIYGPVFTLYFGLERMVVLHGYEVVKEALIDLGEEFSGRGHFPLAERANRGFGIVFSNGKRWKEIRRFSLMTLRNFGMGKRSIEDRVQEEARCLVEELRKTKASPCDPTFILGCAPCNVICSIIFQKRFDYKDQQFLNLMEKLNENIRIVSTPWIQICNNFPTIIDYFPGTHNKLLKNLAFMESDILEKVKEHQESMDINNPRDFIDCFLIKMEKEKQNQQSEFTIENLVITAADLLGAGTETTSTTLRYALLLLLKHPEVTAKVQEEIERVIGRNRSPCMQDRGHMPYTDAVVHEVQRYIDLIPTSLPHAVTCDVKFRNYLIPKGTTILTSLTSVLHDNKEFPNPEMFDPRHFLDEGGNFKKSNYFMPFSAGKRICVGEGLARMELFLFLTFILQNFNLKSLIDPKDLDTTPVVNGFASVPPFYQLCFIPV

Plasmodium berghei [22] = assay: Antimalarial activity against Plasmodium berghei ANKA expressing GFP infected in Sprague-Dawley rat assessed as mean survival days of host at 3 mg/kg, po administered as single dose; format: functional
[23] = AUC (0 to infinity) in Sprague-Dawley rat at 20.2 mg/kg, po; format: ADME, organism-based; design: time infinity, dose 20.2 mg/kg, route oral; conditions: plasma
Plasmodium berghei [24] = assay: Antimalarial activity against Plasmodium berghei ANKA expressing GFP infected in Sprague-Dawley rat assessed as mean survival days of host at 30 mg/kg, po administered as single dose; format: functional
Plasmodium berghei [25] = assay: Antimalarial activity against Plasmodium berghei ANKA expressing GFP infected in Sprague-Dawley rat assessed as reduction in parasitemia at 30 mg/kg, po administered as single dose measured on day 3 post-infection by flow cytometry; format: functional; design: scale not given: the % may be the effect or the level left
[26] = Plasma protein binding in human by reverse phase gradient HPLC analysis; format: ADME, cell-free; conditions: read-out: PPB (converted)
Plasmodium falciparum = assay: Antimalarial activity against chloroquine-resistant Plasmodium falciparum K1 after 24 hrs by hypoxanthine incorporation assay; format: functional, organism-based; conditions: K1, 24 h
Plasmodium berghei [27] = assay: Antimalarial activity against Plasmodium berghei ANKA expressing GFP infected in Sprague-Dawley rat assessed as total cure from parasite at 30 mg/kg, po administered as single dose measured on day 30 post-infection by flow cytometry; format: functional, organism-based; design: dose 30 mg/kg
[28] = AUC (0 to infinity) in Sprague-Dawley rat at 3.2 mg/kg, iv; format: ADME, organism-based; design: time infinity, dose 3.2 mg/kg, route intravenous; conditions: plasma
Plasmodium berghei [29] = assay: Antimalarial activity against Plasmodium berghei ANKA expressing GFP infected in Sprague-Dawley rat assessed as reduction in parasitemia at 100 mg/kg, po administered as single dose measured on day 3 post-infection by flow cytometry; format: functional; design: scale not given: the % may be the effect or the level left
Plasmodium berghei [30] = assay: Antimalarial activity against Plasmodium berghei ANKA expressing GFP infected in Sprague-Dawley rat assessed as reduction in parasitemia at 3 mg/kg, po administered as single dose measured on day 3 post-infection by flow cytometry; format: functional; design: scale not given: the % may be the effect or the level left
[31] = Oral bioavailability in Sprague-Dawley rat at 20.2 mg/kg; format: ADME, organism-based; conditions: in vivo
[32] = Solubility of the compound at 10 uM; format: physicochemical
Cytochrome P450 3A4/3A5 = Cytochrome P450 3A4/3A5 (Homo sapiens, UniProt P08684+P20815); assay: Inhibition of CYP3A4/CYP3A5-mediated testosterone 6beta-hydroxylation in human liver microsomes; format: ADME, Microsome
Cytochrome P450 2D6 = Cytochrome P450 2D6 (Homo sapiens, UniProt P10635); assay: Inhibition of CYP2D6-mediated dextromethorphan O-demethylation in human liver microsomes; format: ADME, Microsome
Cytochrome P450 2D6, sequence (P10635 whole entry): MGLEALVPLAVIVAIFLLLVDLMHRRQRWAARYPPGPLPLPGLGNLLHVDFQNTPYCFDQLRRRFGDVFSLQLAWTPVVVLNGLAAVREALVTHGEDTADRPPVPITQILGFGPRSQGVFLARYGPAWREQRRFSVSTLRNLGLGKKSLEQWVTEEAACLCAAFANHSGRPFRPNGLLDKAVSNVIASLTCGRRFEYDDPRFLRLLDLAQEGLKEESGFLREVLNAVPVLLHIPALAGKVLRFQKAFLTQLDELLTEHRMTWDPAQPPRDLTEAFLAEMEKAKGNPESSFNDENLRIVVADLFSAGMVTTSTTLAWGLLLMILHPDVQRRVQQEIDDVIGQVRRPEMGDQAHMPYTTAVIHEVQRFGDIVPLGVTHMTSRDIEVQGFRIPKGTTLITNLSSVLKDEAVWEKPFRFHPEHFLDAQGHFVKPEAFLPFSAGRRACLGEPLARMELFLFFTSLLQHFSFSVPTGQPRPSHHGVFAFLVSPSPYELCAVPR

In the case of `CS(=O)(=O)c1ccc(-c2cnc(N)c(-c3ccc(C(F)(F)F)nc3)c2)cc1` [MMV-048], the solubility kinetic at 0.5 h [1] is reported as 6.3 µg/mL (≈ 16 µM), the Vd [2] is reported as 2.7 L/kg and the microsomal CLint at 1 µM [3] is reported as < 1.4 µL/min/mg. For the same compound, the ED50 (Plasmodium berghei [4]) was 0.83 mg/kg, the ED90 (Plasmodium berghei [4]) was 1.7 mg/kg and the Activity (Plasmodium berghei [5]) was 98%. For the same compound, the INH (Cytochrome P450 1A2) was > 20 µM, the MSD (Plasmodium berghei [6]) was 13 days and the Activity [7] was “Non-toxic”. The Tmax [8] was 2.5 h, the MSD (Plasmodium berghei [9]) was >30 days and the Cmax [10] was 8 µM. The Activity [11] was “Non-toxic”, the MSD (Plasmodium berghei [12]) was >30 days and the Activity (Plasmodium berghei [13]) was “Active”. The Activity (Salmonella typhimurium) was “Non-toxic”, the half-life [14] was 8.5 h and the half-life at 1 µM [15] was > 8.33 h. The clearance [16] was 6.5 mL/min/kg, the chromatographic logD [17] was 2.6 and the half-life [18] was 7.3 h. The Activity [19] was “Non-toxic”, the Activity (Plasmodium berghei [20]) was 99.7% and the INH (Cytochrome P450 2C9) was > 20 µM. For the same compound, the Activity (L6) was 251.4 µM, the Activity (Plasmodium berghei [21]) was “Active” and the INH (Cytochrome P450 2C19) was > 20 µM. The MSD (Plasmodium berghei [22]) was 8 days, the AUC(0-inf) [23] was 74.2 µM·h and the MSD (Plasmodium berghei [24]) was >30 days. For the same compound, the Activity (Plasmodium berghei [25]) was 99.3%, the fraction unbound [26] was 0.139 and the IC50 (Plasmodium falciparum) was 25 nM. For the same compound, the Activity (Plasmodium berghei [27]) was “Active”, the AUC(0-inf) [28] was 23.4 µM·h and the Activity (Plasmodium berghei [29]) was 99.5%. For the same compound, the Activity (Plasmodium berghei [30]) was 98%, the bioavailability [31] was 51% and the solubility [32] was “Insoluble”. For the same compound, the INH (Cytochrome P450 3A4/3A5) was > 20 µM and the INH (Cytochrome P450 2D6) was > 20 µM.
